Experimental data as given in ChEMBL document CHEMBL6109114, “Design, synthesis, and biological evaluation of 4-(2-fluorophenoxy)pyridine derivatives as novel FLT3-ITD inhibitors” (Eur J Med Chem, 2025).
Activity calls are given as the source filed them. The rule behind the calls is not given here.

Tests used:
[1] = biological target: Mast/stem cell growth factor receptor Kit (Homo sapiens) (UniProt P10721); assay: Inhibition of human c-Kit assessed as remaining activity at 1 uM by Eurofins-DiscoverX assay relative to control
BaF3 = assay: Antiproliferative activity against mouse BaF3 cells harbouring TEL-FLT3 assessed as inhibition of cell growth measured after 3 days by celltiter-glo luminescent cell viability assay; type: functional, cell-based; conditions: BaF3, 72 h
[2] = biological target: Cyclin-dependent kinase 2/cyclin A (Homo sapiens) (UniProt P24941+P20248+P78396); assay: Inhibition of human CDK2/CyclinA at 1 uM by Eurofins-DiscoverX assay; type: protein-complex assay
[3] = Metabolic stability in human liver microsomes assessed as intrinsic clearance at 1 uM measured up to 60 mins in presence of NADPH regenerating system by LC-MS/MS analysis; type: ADME, Microsome; conditions: read-out: CLH
[4] = Antiproliferative activity against human PBMC cells assessed as inhibition of cell growth measured after 3 days by celltiter-glo luminescent cell viability assay; type: toxicity, cell-based
CYP1A2 = CYP1A2 (Homo sapiens, UniProt P05177); assay: Inhibition of CYP1A2 in human liver microsomes using phenacetin as substrate at 10 uM incubated for 10 mins in presence of NADPH by LC-MS/MS analysis relative to control; type: ADME, Microsome; conditions: probe phenacetin
MOLM-13 [5] = assay: Induction of apoptosis in human MOLM-13 cells assessed as necrotic cells at 0.1 uM incubated for 48 hrs by Annexin V-FITC/PI staining based flow cytometry analysis (reference value: 0.077%); type: functional
MOLM-13 [6] = assay: Induction of apoptosis in human MOLM-13 cells assessed as late apoptotic cells at 0.1 uM incubated for 48 hrs by Annexin V-FITC/PI staining based flow cytometry analysis (reference value: 3.10%); type: functional
[7] = biological target: Receptor-type tyrosine-protein kinase FLT3 (Homo sapiens) (UniProt P36888); assay: Inhibition of FLT3 phosphorylation in human MOLM-13 cells measured after 2 hrs by Western blot analysis; type: cell-based; conditions: dose 0.01-1 µM
MOLM-13 [8] = assay: Induction of apoptosis in human MOLM-13 cells assessed as early apoptotic cells at 1 uM incubated for 48 hrs by Annexin V-FITC/PI staining based flow cytometry analysis (reference value: 4.93%); type: functional
MOLM-13 [9] = assay: Inhibition of STAT5 phosphorylation in human MOLM-13 cells at 0.2 uM measured after 2 hrs by Western blot analysis relative to control; type: cell-based
[10] = AUC (0 to t) in mouse at 10 mg/kg, po; type: ADME, organism-based; conditions: in vivo
MOLM-13 [11] = assay: Induction of apoptosis in human MOLM-13 cells assessed as necrotic cells at 0.3 uM incubated for 48 hrs by Annexin V-FITC/PI staining based flow cytometry analysis (reference value: 0.077%); type: functional
CYP2C9 = CYP2C9 (Homo sapiens, UniProt P11712); assay: Inhibition of CYP2C9 in human liver microsomes using diclofenac as substrate at 10 uM incubated for 10 mins in presence of NADPH by LC-MS/MS analysis relative to control; type: ADME, Microsome; conditions: probe diclofenac
[12] = Tmax in mouse at 10 mg/kg, po; type: ADME, organism-based; conditions: in vivo
MOLM-13 [13] = assay: Induction of apoptosis in human MOLM-13 cells assessed as viable cells at 1 uM incubated for 48 hrs by Annexin V-FITC/PI staining based flow cytometry analysis (reference value: 91.9%); type: functional; conditions: read-out: Activity
MOLM-13 [14] = assay: Induction of cell cycle arrest in human MOLM-13 cells assessed as accumulation of cells at G1 phase at 0.3 uM incubated for 48 hrs (reference value: 40.3%); type: functional
MOLM-13 [15] = assay: Induction of cell cycle arrest in human MOLM-13 cells assessed as accumulation of cells at G1 phase at 0.1 uM incubated for 48 hrs (reference value: 40.3%); type: functional
[16] = Antiproliferative activity against non-FLT3 expressing human TMD8 cells assessed as inhibition of cell growth measured after 3 days by celltiter-glo luminescent cell viability assay; type: functional, cell-based; conditions: TMD8, 72 h
[17] = biological target: T1, CDK4/Cyclin D3 (Homo sapiens) (UniProt P11802+P30281); assay: Inhibition of human CDK4/cyclinD3 at 1 uM by Eurofins-DiscoverX assay; type: protein-complex assay
NCI-H441 = assay: Antiproliferative activity against non-FLT3 expressing human NCI-H441 cells assessed as inhibition of cell growth measured after 3 days by celltiter-glo luminescent cell viability assay; type: functional, cell-based; conditions: NCI-H441, 72 h
[18] = Metabolic stability in Sprague-Dawley rat liver microsomes assessed as intrinsic clearance at 1 uM measured up to 60 mins in presence of NADPH regenerating system by LC-MS/MS analysis; type: ADME, Microsome; conditions: read-out: CLH
[19] = Tmax in mouse at 5 mg/kg, iv; type: ADME, organism-based; conditions: in vivo
MOLM-13 [20] = assay: Induction of apoptosis in human MOLM-13 cells assessed as early apoptotic cells at 0.1 uM incubated for 48 hrs by Annexin V-FITC/PI staining based flow cytometry analysis (reference value: 4.93%); type: functional
MOLM-13 [21] = assay: Induction of cell cycle arrest in human MOLM-13 cells assessed as accumulation of cells at G2 phase at 0.1 uM incubated for 48 hrs (reference value: […]); type: functional
CYP3A4 = CYP3A4 (Homo sapiens, UniProt P08684); assay: Inhibition of CYP3A4 in human liver microsomes using midazolam as substrate at 10 uM incubated for 10 mins in presence of NADPH by LC-MS/MS analysis relative to control; type: ADME, Microsome; conditions: probe midazolam
MOLM-13 [22] = assay: Induction of cell cycle arrest in human MOLM-13 cells assessed as accumulation of cells at S phase at 0.3 uM incubated for 48 hrs (reference value: 41.6%); type: functional
[23] = biological target: CDK3/Cyclin E (Homo sapiens) (UniProt P24864+Q00526); assay: Inhibition of human CDK3/CyclinE assessed as remaining activity at 1 uM by Eurofins-DiscoverX assay relative to control; type: protein-complex assay
[24] = Metabolic stability in Beagle dog liver microsomes assessed as parent compound remaining at 1 uM measured after 60 mins in presence of NADPH regenerating system by LC-MS/MS analysis; type: ADME, Canis lupus familiaris, Microsome; conditions: read-out: Stability
[25] = biological target: T1, CDK4/Cyclin D3 (Homo sapiens); assay: Inhibition of human CDK4/cyclinD3 assessed as remaining activity at 1 uM by Eurofins-DiscoverX assay relative to control; type: protein-complex assay
[26] = Permeability of the compound incubated for 4 hrs by PAMPA method; type: ADME; conditions: read-out: permeability
[27] = biological target: Mast/stem cell growth factor receptor Kit (Homo sapiens) (UniProt P10721); assay: Inhibition of human c-Kit at 1 uM by Eurofins-DiscoverX assay
MOLM-13 [28] = assay: Induction of cell cycle arrest in human MOLM-13 cells assessed as accumulation of cells at G2 phase at 1 uM incubated for 48 hrs (reference value: […]); type: functional
[29] = MRT (0 to t) in mouse at 10 mg/kg, po; type: ADME, organism-based; conditions: in vivo
MOLM-13 [30] = assay: Induction of cell cycle arrest in human MOLM-13 cells assessed as accumulation of cells at S phase at 0.1 uM incubated for 48 hrs (reference value: 41.6%); type: functional
HL-60 = assay: Antiproliferative activity against human HL-60 cells harbouring wild type FLT3 assessed as inhibition of cell growth measured after 3 days by celltiter-glo luminescent cell viability assay; type: functional, cell-based; conditions: HL-60, 72 h
MOLM-13 [31] = assay: Induction of apoptosis in human MOLM-13 cells assessed as necrotic cells at 1 uM incubated for 48 hrs by Annexin V-FITC/PI staining based flow cytometry analysis (reference value: 0.077%); type: functional

Chain of Mast/stem cell growth factor receptor Kit (Homo sapiens) (P10721 whole entry): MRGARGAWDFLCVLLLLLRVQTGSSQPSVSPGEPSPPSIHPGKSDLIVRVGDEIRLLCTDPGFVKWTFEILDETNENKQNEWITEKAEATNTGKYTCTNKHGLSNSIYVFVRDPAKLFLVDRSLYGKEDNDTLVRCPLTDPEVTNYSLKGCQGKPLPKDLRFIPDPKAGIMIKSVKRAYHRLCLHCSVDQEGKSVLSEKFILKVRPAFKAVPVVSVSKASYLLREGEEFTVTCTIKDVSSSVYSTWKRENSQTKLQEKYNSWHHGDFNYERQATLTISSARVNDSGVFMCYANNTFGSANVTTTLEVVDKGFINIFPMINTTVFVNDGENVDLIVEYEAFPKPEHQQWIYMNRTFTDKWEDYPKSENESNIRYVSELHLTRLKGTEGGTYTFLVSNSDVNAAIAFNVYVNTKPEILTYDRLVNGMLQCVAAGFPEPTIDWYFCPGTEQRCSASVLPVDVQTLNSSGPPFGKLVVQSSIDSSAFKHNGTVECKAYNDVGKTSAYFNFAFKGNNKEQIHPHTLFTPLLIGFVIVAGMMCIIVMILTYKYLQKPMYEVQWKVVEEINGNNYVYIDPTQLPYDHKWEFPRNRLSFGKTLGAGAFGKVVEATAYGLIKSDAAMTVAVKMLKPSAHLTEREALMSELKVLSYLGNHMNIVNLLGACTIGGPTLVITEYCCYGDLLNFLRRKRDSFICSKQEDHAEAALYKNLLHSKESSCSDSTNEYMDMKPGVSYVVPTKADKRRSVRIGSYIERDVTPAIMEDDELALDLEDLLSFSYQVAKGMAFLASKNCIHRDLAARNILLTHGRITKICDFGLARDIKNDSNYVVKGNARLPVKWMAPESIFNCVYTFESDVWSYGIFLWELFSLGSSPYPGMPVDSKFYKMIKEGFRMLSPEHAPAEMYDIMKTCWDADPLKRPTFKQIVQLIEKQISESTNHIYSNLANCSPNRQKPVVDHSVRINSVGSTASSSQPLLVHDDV
Chain of CDK3/Cyclin E (Homo sapiens) (P24864 whole entry, looked up): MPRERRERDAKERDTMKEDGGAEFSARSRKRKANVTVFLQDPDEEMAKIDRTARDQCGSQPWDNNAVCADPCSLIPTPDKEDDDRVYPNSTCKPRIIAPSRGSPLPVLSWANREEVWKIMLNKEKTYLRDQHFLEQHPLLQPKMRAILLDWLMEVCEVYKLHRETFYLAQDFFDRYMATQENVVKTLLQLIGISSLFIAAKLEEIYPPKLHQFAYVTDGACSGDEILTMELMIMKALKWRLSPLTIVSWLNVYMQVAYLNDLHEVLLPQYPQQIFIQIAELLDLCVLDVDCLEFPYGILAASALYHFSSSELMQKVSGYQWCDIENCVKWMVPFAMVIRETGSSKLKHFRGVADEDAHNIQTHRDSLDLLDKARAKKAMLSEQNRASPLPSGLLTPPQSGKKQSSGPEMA
Chain of CDK3/Cyclin E (Homo sapiens) (Q00526 whole entry, looked up): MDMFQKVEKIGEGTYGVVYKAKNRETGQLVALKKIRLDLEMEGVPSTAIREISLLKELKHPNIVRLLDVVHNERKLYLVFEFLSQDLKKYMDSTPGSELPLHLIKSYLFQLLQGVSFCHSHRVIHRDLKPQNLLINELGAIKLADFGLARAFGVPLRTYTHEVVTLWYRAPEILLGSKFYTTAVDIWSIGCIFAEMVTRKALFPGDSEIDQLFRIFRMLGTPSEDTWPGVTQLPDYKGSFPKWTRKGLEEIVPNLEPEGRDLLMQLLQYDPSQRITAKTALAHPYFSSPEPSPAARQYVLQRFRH
Chain of CYP3A4 (P08684 whole entry): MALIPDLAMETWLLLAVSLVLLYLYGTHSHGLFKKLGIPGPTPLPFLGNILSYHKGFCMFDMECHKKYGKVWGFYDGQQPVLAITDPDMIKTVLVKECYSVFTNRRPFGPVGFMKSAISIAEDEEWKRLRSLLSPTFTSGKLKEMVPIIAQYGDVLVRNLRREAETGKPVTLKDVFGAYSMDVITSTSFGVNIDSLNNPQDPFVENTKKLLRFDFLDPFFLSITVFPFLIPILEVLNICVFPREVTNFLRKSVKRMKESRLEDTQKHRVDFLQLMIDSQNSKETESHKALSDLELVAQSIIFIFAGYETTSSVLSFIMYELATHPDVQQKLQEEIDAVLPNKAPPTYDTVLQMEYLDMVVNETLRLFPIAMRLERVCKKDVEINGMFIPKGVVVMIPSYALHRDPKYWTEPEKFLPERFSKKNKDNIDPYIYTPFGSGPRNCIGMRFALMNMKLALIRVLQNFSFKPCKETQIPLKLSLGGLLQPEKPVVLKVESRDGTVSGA
Chain of Receptor-type tyrosine-protein kinase FLT3 (Homo sapiens) (P36888 whole entry): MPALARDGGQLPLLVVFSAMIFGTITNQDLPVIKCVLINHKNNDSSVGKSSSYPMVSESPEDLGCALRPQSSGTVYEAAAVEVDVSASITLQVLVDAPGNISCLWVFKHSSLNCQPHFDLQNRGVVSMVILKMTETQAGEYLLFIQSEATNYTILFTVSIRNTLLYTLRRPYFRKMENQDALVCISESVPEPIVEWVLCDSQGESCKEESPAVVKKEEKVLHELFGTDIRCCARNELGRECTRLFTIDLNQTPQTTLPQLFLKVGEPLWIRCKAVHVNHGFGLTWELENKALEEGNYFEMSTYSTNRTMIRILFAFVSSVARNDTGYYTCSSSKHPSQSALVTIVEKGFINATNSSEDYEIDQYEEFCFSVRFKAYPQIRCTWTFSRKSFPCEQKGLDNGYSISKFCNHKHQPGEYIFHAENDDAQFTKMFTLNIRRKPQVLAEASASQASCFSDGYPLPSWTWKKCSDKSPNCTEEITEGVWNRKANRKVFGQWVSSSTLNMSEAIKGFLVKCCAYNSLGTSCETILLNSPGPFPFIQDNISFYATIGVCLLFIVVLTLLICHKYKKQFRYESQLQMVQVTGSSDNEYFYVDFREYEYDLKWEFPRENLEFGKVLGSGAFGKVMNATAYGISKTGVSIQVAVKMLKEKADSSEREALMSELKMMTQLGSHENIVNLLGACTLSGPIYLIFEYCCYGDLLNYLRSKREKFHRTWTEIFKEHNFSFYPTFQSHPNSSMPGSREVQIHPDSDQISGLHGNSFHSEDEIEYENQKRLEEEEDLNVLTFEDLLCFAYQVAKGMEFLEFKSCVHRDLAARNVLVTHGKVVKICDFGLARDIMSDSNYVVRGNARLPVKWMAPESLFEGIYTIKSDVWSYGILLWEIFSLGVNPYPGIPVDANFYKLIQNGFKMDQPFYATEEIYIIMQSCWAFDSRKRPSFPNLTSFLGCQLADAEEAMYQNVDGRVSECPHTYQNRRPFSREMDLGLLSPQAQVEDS
Chain of CYP2C9 (P11712 whole entry): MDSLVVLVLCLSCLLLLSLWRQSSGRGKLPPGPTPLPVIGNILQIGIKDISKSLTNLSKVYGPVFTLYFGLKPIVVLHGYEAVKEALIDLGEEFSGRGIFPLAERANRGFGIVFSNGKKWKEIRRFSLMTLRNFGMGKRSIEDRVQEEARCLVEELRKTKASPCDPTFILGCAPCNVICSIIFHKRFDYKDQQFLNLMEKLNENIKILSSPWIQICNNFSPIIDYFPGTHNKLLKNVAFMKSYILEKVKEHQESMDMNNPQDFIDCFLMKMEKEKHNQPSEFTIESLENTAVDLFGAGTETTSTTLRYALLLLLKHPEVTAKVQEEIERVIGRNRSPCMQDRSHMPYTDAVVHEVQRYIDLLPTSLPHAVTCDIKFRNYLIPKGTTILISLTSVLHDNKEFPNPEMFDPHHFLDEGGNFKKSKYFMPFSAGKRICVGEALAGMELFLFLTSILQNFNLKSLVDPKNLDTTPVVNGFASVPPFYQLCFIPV
Chain of CYP1A2 (P05177 whole entry): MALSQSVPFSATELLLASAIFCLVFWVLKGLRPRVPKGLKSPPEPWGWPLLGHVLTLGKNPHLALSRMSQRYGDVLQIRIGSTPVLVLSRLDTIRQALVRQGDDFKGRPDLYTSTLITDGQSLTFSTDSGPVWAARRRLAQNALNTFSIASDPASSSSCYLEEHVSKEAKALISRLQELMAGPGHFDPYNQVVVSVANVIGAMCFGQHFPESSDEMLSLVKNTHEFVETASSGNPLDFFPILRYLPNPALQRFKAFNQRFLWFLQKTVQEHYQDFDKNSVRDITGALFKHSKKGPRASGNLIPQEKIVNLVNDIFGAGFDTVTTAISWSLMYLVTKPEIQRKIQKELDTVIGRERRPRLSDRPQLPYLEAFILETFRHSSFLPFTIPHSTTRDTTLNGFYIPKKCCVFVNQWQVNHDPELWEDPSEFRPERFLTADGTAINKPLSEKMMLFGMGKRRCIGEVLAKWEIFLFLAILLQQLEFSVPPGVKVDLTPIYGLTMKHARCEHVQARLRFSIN

Cc1cc(=O)n(-c2cc(Cl)ccc2F)nc1C(=O)Nc1ccc(Oc2ccnc(NC(=O)N3CC(O)C3)c2)c(F)c1
Activity [1]: 88%
IC50 (BaF3): 3.69 µM
inhibition [2]: inactive
microsomal CLint at 1 µM [3]: 12.7 µL/min/mg
IC50 at 3 days [4]: > 30 µM
inhibition at 10 min, 10 µM (CYP1A2): 9.5%
Activity (MOLM-13 [5]): 0.062%
Activity (MOLM-13 [6]): 3.37%
inhibition [7]: Dose-dependent-effect
Activity (MOLM-13 [8]): 29.6%
inhibition (MOLM-13 [9]): 100%
AUC(0-t) [10]: 1400 ng·h/mL
Activity (MOLM-13 [11]): 0.068%
inhibition at 10 min, 10 µM (CYP2C9): 25.6%
Tmax [12]: 1.17 h
viability at 1 µM (MOLM-13 [13]): 33.5%
Activity (MOLM-13 [14]): 75.8%
Activity (MOLM-13 [15]): 50.1%
IC50 [16]: 22.3 µM
inhibition [17]: inactive
IC50 (NCI-H441): > 30 µM
microsomal CLint at 1 µM [18]: 11.8 µL/min/mg
Tmax [19]: 0.25 h
Activity (MOLM-13 [20]): 5.69%
Activity (MOLM-13 [21]): 9.39%
inhibition at 10 min, 10 µM (CYP3A4): 34.2%
Activity (MOLM-13 [22]): 17.1%
Activity [23]: 88%
remaining at 1 h, 1 µM [24]: 72.7%
Activity [25]: 88%
Papp at 4 h [26]: 0.86 ×10⁻⁶ cm/s
inhibition [27]: inactive
Activity (MOLM-13 [28]): 0%
MRT last [29]: 3.37 h
Activity (MOLM-13 [30]): 40.5%
IC50 (HL-60): 18.9 µM
Activity (MOLM-13 [31]): 0.74%
